Measurements reported in US20110152358A1, “Compositions and Methods for Diagnosis and Treatment of Pancreatic Ductal Cancer” (priority 2008, published 2011).
“Also recorded” adds a separate entry of the source.

Tests used:
Format in all cases: cell-based, human
PANC-1 cells [1] = assay: Matrigel cell invasion assay, sham and 14-3-3σ overexpressing PANC-1 clones; conditions: 20 hours
Procedure: (§1) Cell invasion was measured as reported previously, with some modification (Rowland-Goldsmith, M. A. et al. 2001. Clin. Cancer Res. 7:2931-2940). Briefly, cells were suspended in 500 μL of serum-free medium (0.1% BSA) and placed onto the upper compartment of Matrigel-coated transwell chambers (8 μm pore sized, BioCoat Matrigel Invasion Chambers, BD Biosciences, San Jose, Calif.). The lower compartment was filled with 750 μL of medium containing serum free media in the absence or presence of the respective growth factors. After 18-20 hours, cells on the upper surface of the filter were carefully removed with a cotton swab and the membranes were fixed in methanol. The cells that had migrated through the membrane to the lower surface of the filter were stained with toluidine blue (Fisher Scientific, Fair Lawn, N.J.) and counted using a light microscope.

T3M4 cells [2] = assay: Matrigel cell invasion assay, shRNA infected T3M4 cells; conditions: 18 hours
Procedure: as §1

PANC-1 cells [3] = assay: MTT assay, survival of PANC-1 clones with cisplatinum; conditions: 10 μg/mL cisplatinum; 48 hours
Procedure: Sham-transfected PANC-1 cells and 14-3-3σ transfected clones (1×10^4) were plated in 96-well plates (six wells per sample). Cells were allowed to attach and grow for 48 hours in complete medium, and then treated with complete medium in the absence or presence of 10 μg/mL of cisplatinum (Sigma) for 48 hours, followed by the addition of MTT (3-[4,5-dimethylthiazol-2-yl]-2,5-diphenyltetrazolium bromide) (Sigma) at a final concentration 0.55 μg/mL. After an additional 4 hour incubation, absorbance at 570 nm was determined, with a reference of 650 nm, using a Emax precision microplate reader (Molecular devices, Sunnyvale, Calif.), as previously reported (Arnold, N. B. et al. 2004. Cancer Res. 64:3599-3606). It was previously determined that in pancreatic cancer cell lines the MTT assay correlates closely with cell growth as determined by cell counting and by assessing [^3H]thymidine incorporation (Raitano, A. B. and M. Korc. 1990. J. Biol. Chem. 265:10466-10472; Baldwin, R. L. and M. Korc. 1993. Growth Fact. 8:23-34).

T3M4 cells [4] = assay: cisplatinum induced apoptosis, immunoblot of cleaved PARP and cleaved caspase-3, shRNA infected T3M4 cells; conditions: cisplatinum 10 νg/mL for 2, 6, or 24 hours
Procedure: (§2) Sham or 14-3-3σ transfected PANC-1 cells were incubated for 24 hours in complete medium in the absence or presence of 10 μg/mL of cisplatinum. Scrambled or 14-3-3σ specific shRNA infected T3M4 cells were incubated in complete medium for 24 hours that was supplemented with 10 μg/mL cisplatinum for the initial 2 or 6 hours, or the entire 24 hours. Both floating and adherent cells were then collected and lysed in the buffer containing protease inhibitors, subjected to 10% SDS-PAGE, and immunoblotted with specific antibodies against cleaved Poly (ADP-ribose) Polymerase (PARP) and cleaved caspase-3 (Cell Signaling Technology, Danvers, Mass.).

PANC-1 cells [5] = assay: cisplatinum induced apoptosis, immunoblot of cleaved PARP and cleaved caspase-3, PANC-1 clones; conditions: 10 μg/mL cisplatinum; 24 hours
Procedure: as §2

PANC-1 cells [6] = assay: in vitro wound-healing (migration) assay, sham and 14-3-3σ overexpressing PANC-1 clones; conditions: EGF 1 nmol/L; serum free media; 24 hours
Procedure: (§3) To assess the motility properties, in vitro wound-healing assays or migration assays were performed. Cells were grown to confluence in 6-well tissue culture plates, serum starved overnight, and the monolayer was scratched with a 200 μL pipette tip generating two parallel wounds. The scratched wells were washed to remove cell debris and incubated for the next 24 hours in serum free media in the absence or presence 1 nmol/L EGF with or without the Src family kinase inhibitor PP2 (4-amino-5-(4-chlorophenyl)-7-(t-butyl)pyrazolo[3,4-d]pyrimidine) (Alexis, La Jolla, Calif.). To monitor cell migration, photographs were taken of each well at five marked locations under 40× magnification immediately after wounding (t0) and again 24 hours after wounding (t24), using an inverted microscope fitted with a digital camera (Nikon Diaphot 300, Nikon, Japan). The wound area of five matched pictures at t0 and t24 from each well were then measured using the ImageJ software (NIH, Bethedsa, Md.), and the percentage change in the wound area was calculated.

T3M4 cells [7] = assay: in vitro wound-healing (migration) assay, shRNA infected T3M4 cells; conditions: EGF 1 nmol/L; 24 hours; control shRNA, sh1 or sh2 infected cells; percentage change in wound area
Procedure: as §3

C[S+]([O-])c1ccc(-c2nc(-c3ccncc3)c(-c3ccc(F)cc3)[nH]2)cc1 (stereo not drawn) [SB203580, reference compound]
effect on EGF-mediated invasion in 14-3-3σ overexpressing clones (PANC-1 cells [1]; EGF 1 nmol/L, LY 294002 5 μmol/L, SB 203580 10 μmol/L, PP2 10 μmol/L, clone C1): suppressed; also recorded: completely blocked

COc1cc2ncnc(Nc3cccc(Br)c3)c2cc1OC [AG 1517, reference compound]
effect on EGF induced invasion in 14-3-3σ downregulated cells (sh2 infected) (T3M4 cells [2]; EGF 1 nmol/L, AG 1517 1 μmol/L, PP2 10 μmol/L): suppressed

IGF-1: IGF-1 growth factor used as chemoattractant at 1 nmol/L
invasion of PANC-1 clones overexpressing 14-3-3σ compared to sham cells (PANC-1 cells [1]; IGF-1 1 nmol/L): significantly increased
IGF-1-mediated invasion in presence of endogenously high levels of 14-3-3σ (T3M4 cells [2]; IGF-1 1 nmol/L, non-silenced T3M4): robust
IGF-1 effect on invasion in T3M4 cells in which 14-3-3σ was silenced (T3M4 cells [2]; IGF-1 1 nmol/L, sh1 or sh2 infected): markedly attenuated; also recorded: completely suppressed

N.N.[Cl][Pt][Cl] [cisplatinum]
survival of 14-3-3σ overexpressing clones compared with Sham (MTT) (PANC-1 cells [3]): significant (p<0.01) increase
apoptosis (PARP cleavage, caspase-3 activation) in 14-3-3σ silenced cells compared to non-silenced cells (T3M4 cells [4]): increased apoptosis
PARP cleavage in 14-3-3σ overexpressing clones compared with sham transfected cells (PANC-1 cells [5]): attenuated
generation of cleaved caspase-3 in 14-3-3σ overexpressing clones compared with sham transfected cells (PANC-1 cells [5]): markedly decreased

EGF: EGF growth factor, ligand of the EGF receptor, added at 1 nmol/L (NSDSECPLSHDGYCLHDGVCMYIEALDKYACNCVVGYIGERCQYRDLKWWELR; UniProt P01133 971-1023, looked up)
invasion of sham transfected cells (PANC-1 cells [1]; EGF 1 nmol/L): not statistically significant
invasion of 14-3-3σ overexpressing clones (PANC-1 cells [1]; EGF 1 nmol/L, clones C1 and C7): markedly enhanced
motility of 14-3-3σ overexpressing cells (PANC-1 cells [6]): did not cause an additional increase in motility
motility of sham-transfected cells (PANC-1 cells [6]): slight but significant increase
invasion in 14-3-3σ downregulated cells (sh2 infected) compared to control shRNA infected cells (T3M4 cells [2]; EGF 1 nmol/L): marked increase
EGF stimulated motility (T3M4 cells [7]): about 50%
